By IC50 is commonly meant the point on the concentration scale where inhibition reaches its midpoint.

Molecules are shown by their SMILES. Values after ≈ are worked out from the molar mass of the structure shown.

This note sets out measurements from US11000535B2, “Anticancer composition and use thereof” (KAOHSIUNG MEDICAL UNIVERSITY, priority 2015, dated 2021).

The test system of assay [1] is Huh7 cells. Nature of the assay: alamarBlue cell viability / proliferation, Huh7. Type of assay: cell-based, human. The text has this:
(§1) Next, we analyzed the effect of PGG on cell proliferation in different liver cancer cell lines, including Huh7, Hep3B (ATCC-No 8064), HepG2 (ATCC HB-8065), SK-HEP-1 (ATCC HTB-52), Mahlavu and HepG2 (ATCC HB-8065).
(§2) Please refer to FIG. 18, which illustrates the effect of PGG on cell proliferation in different liver cancer cell lines, wherein the numeral 1 denotes Huh7 cells, the numeral 2 denotes Hep3B cells, the numeral 3 denotes SK-HEP-1 cells, the numeral 4 denotes Mahlavu cells, and the numeral 5 denotes HepG2 cells. And cell viability was determined by the alamarBlue® viability assay. IC50 values of PGG in each cell line are shown as follows: Huh7 cells 0.03 mg/mL, Hep3B cells 0.07 mg/mL, SK-HEP-1 cells, Mahlavu cells and HepG2 0.10 mg/mL dose-dependent.
(§3) Human liver cancer cell lines Huh7, Hep G2, Hep 3B, SK-HEP-1, Mahlavu and embryonic kidney cell line HEK-293T all were cultured in Dulbecco's Modified Eagle's Medium (DMEM) (Gibco BRL, Grand Island, N.Y., USA) with 10% heat-inactivated fetal bovine serum (HyClone, Logan, Utah, USA), penicillin (100 U/mL), streptomycin ([…]), nonessential amino acids (0.1 mM/L) and L-glutamine (2 mM/L) in a humidified incubator with 5% CO2.

Another assay deals with Hep3B cells. The assay is described as follows: alamarBlue cell viability, Hep3B. In kind it is cell-based, human.
Text: as §1, §2, §3
(In general: Alamar Blue is a resazurin reagent that responds to reducing activity.)

A further assay has as its system SK-HEP-1 cells. The assay is described as follows: alamarBlue cell viability, SK-HEP-1. Type of assay: cell-based, human.
Text: as §1, §2, §3

The next assay concerns Mahlavu cells. Nature of the assay: alamarBlue cell viability, Mahlavu. Type of assay: cell-based, human.
Text: as §1, §2, §3

A further assay concerns HepG2 cells. Nature of the assay: alamarBlue cell viability, HepG2. Type of assay: cell-based, human.
Text: as §1, §2, §3

The subject of assay [2] is Huh7 cells. The assay is described as follows: Colony formation assay. In kind it is cell-based, human. The following applies: 7 days. The protocol: For the colony assay, Huh7 cells were seeded. […] Numbers of surviving colonies were analyzed.
Assay [3] relates to Huh7 cells. The assay is described as follows: Antitumor effect of PGG, Huh7 xenograft. Type of assay: in vivo, nude mice. The settings on record: 300 mpk, once a day for 10 days. Here is the method: To test the antitumor effect of PGG in vivo, Huh7 cells were implanted subcutaneously into nude mice.
By the same token, mice were subcutaneously injected with Huh7 cells (2×10^6) in order to test the anti-tumor effect of PGG in vivo.
Tumor growth was monitored (every day or three times per week) by using Vernier caliper measurement of the length (L) and width (W) of the tumor.
Tumor volume (TV) was calculated by using the formula volume=(L×W^2)/2.

The subject of another assay is GNMT. Nature of the assay: GNMT expression in xenograft tumor samples. Type of assay: in vivo, mice. The source says:
Please refer to FIG. 21, which illustrates GNMT/actin expression in the tumor tissue.
Please refer to FIG. 30, which illustrates the relative expression of GNMT mRNA in the tumor xenograft mice after treatments, wherein the numeral 1 is for a physiological saline solution, the numeral 2 is for F3-6 (25 mpk), the numeral 3 is for F3-6 (300 mpk), the numeral 4 is for sorafenib (10 mpk), the numeral 5 is for F3-6 (25 mpk) with sorafenib (10 mpk), and the numeral 6 is for PGG (25 mpk) with sorafenib (10 mpk). The expression activity of GNMT mRNA is increased whenever fracrions F3-6 or PGG are administered.
(§4) RNA was prepared by using Tri Reagent (Sigma-Aldrich, St Louis, Mo., USA) and was reverse transcribed into cDNA using a Super Script II Reverse Transcriptase Kit (Invitrogen Inc., Carlsbad, Calif., USA).
PCR was performed on an ABI StepOne Plus System (Applied Biosystems, Foster City, Calif., USA) using the LightCycler® First Start DNA Master SYBR Green I reagent (Roche Diagnostics, Basel, Switzerland). The mRNA level was normalized using the TATA-box binding protein (TBP) mRNA level as the standard. […]
Protein lysates were quantified and separated on SDS-PAGE gel, and immunoblotting was carried out. […]

In assay [4] the test system is c-Myc protein. Nature of the assay: c-Myc protein expression by immunoblotting, HepG2. Type of assay: cell-based, human. The settings on record: HepG2 cells. Here is the method:
Please refer to FIG. 32A, FIG. 32B, FIG. 33A and FIG. 33B.
(§5) Cells or xenograft tumors were harvested with RIPA lysis buffer (50 mM Tris (pH 7.5), 150 mM NaCl, 1% Triton X-100, 0.1% sodium dodecyl sulfate (SDS), 0.5% sodium deoxycholate, supplemented with protease and phosphatase inhibitors (1 mM Phenylmethanesulfonyl Fluoride (PMSF), […], […] Tosyllysine Chloromethyl Ketone (TLCK), […] Tosyl phenylalanyl chloromethyl ketone (TPCK), […] aprotinin, 1 mM sodium fluoride (NaF), 5 mM sodium pyrophosphate (NaPPi) and 10 mM sodium orthovanadate (Na3VO4).
(§6) Protein lysates were quantified and separated on SDS-PAGE gel, and immunoblotting was carried out.

The subject of assay [5] is c-Myc protein. Nature of the assay: c-Myc protein expression by immunoblotting, HL60. The settings on record: HL60 cells, 0.1 mg/mL. Type of assay: cell-based, human. The protocol:
(§7) Human prostate cancer cell line PC-3 and human promyelocytic leukemia cell line HL-60 were cultured in Gibco BRL company RPMI (Roswell Park Memorial Institute) 1640's medium.
as §5, §6
A general note: A western blot detects proteins with antibodies after separation by electrophoresis.

Assay [6] relates to c-Myc protein. The assay is described as follows: c-Myc protein expression by immunoblotting, PC-3. Type of assay: cell-based, human. The settings on record: PC-3 cells, 0.1 mg/mL. Here is the method:
as §7, §5, §6

The test system of a further assay is c-Myc. The assay is described as follows: c-Myc expression in xenograft tumors. In kind it is in vivo, mice. The following applies: FIG. 34 c-Myc/actin (PGG); FIG. 35 mRNA (F3-6 25 and 300 mpk). The protocol: Please refer to FIGS. 34-35. FIG. 34 illustrates c-Myc/actin expression ratio in the tumor after treatments, wherein the numeral 1 is for the solvent, and the numeral 2 is for PGG. FIG. 35 illustrates c-Myc in RNA expression in the tumor after treatments, wherein the numeral 1 is for the solvent, the numeral 2 is for F3-6 (25 mpk), and the numeral 3 is for F3-6 (300 mpk).
as §4
PCR was performed on an ABI StepOne Plus System (Applied Biosystems, Foster City, Calif., USA) using the LightCycler® First Start DNA Master SYBR Green I reagent (Roche Diagnostics, Basel, Switzerland). The mRNA level was normalized using the TATA-box binding protein (TBP) mRNA level as the standard.
The following primers were used: GNMT forward, 5′-ACTGGATGACT CTGGACAA-3′ (SEQ ID NO. 3) and reverse, 5′-ACTGAGGATGTGGTCGT-3′(SEQ ID NO. 4); TBP forward, 5′-[…]-3′ (SEQ ID NO. 5) and reverse, 5′-[…]-3′(SEQ ID NO. 6); c-Myc forward, […](SEQ ID NO. 7) and reverse, […](SEQ ID NO. 8). […]

Regarding `O=C(OC[C@H]1O[C@@H](OC(=O)c2cc(O)c(O)c(O)c2)[C@H](OC(=O)c2cc(O)c(O)c(O)c2)[C@@H](OC(=O)c2cc(O)c(O)c(O)c2)[C@@H]1OC(=O)c1cc(O)c(O)c(O)c1)c1cc(O)c(O)c(O)c1` [PGG, 1,2,3,4,6-penta-O-galloyl-β-D-glucopyranoside], the IC50 with Huh7 cells [1] was found to be 30 µg/mL (≈ 31.9 µM); in the assay on Hep3B cells, 70 µg/mL (≈ 74.4 µM); in the assay on SK-HEP-1 cells, 100 µg/mL (≈ 106 µM); in the assay with Mahlavu cells it was 100 µg/mL (≈ 106 µM); in the assay with HepG2 cells, 100 µg/mL (≈ 106 µM). Further, the “inhibition of colony formation” value in the assay on Huh7 cells [2] (0.05 mg/ml or higher) worked out at 95%. For the same compound, the “formation of Huh7 cell populations (colonies), dose dependence” value in the assay with Huh7 cells [2] is “dose-dependent manner”. The “tumor growth (tumor volume) vs control group” value in the assay on Huh7 cells [3] was “significant inhibition in tumor growth”. Moreover, in the assay with GNMT (PGG 300 mpk xenograft, FIG. 21), the “GNMT/actin expression in the tumor tissue (immunoblot)” value is “induced”. The “expression activity of GNMT mRNA in the tumor” value in the assay on GNMT (combination xenograft study, FIG. 30, F3-6 25 or 300 mpk, PGG 25 mpk with sorafenib 10 mpk) is reported as “increased”. Further, the “expression of c-Myc protein, dose dependence” value in the assay on c-Myc protein [4] is “suppresses the expression of c-Myc protein in HepG2 cells in a dose-dependent manner”. In the assay with c-Myc protein [4], the “expression of c-Myc protein, time dependence” value is “suppresses the expression of c-Myc protein in HepG2 cells in a time-dependent manner”. In addition, the c-Myc protein expression result in the assay on c-Myc protein [5] and with c-Myc protein [6] was “inhibits c-Myc protein expression” each time. The “expression of c-Myc in the tumor xenograft mice” value with c-Myc is reported as “lowers the expression of c-Myc”.
